Test: xn = mol fraction of the nth substance listed
Details: 101 kPa

CCCCCCCCCC[n+]1ccn(C)c1.[Br-] + O
viscosity [mPa·s]
Details | 288 K | 293 K | 298 K | 303 K | 308 K
x1 = 0.0146 | 3.39 | 3.21 | 2.77 | – | 1.94
x1 = 0.0194 | 4.6 | 4.1 | 3.72 | – | 2.83
x1 = 0.0248 | 6.77 | 5.99 | 5.72 | 5.12 | 4.22
x1 = 0.031 | 9.19 | 8.61 | 8.09 | 7.92 | 7.3
